Tests used:
human recombinant PDE5 = molecular target: T1, human recombinant PDE5 (Homo sapiens, UniProt O76074); test: Inhibitory effect on cGMP-PDE (PDE5 IC50, one-step assay); assay type: biochemical; conditions: in vitro
T1 construct: host or cells: Saccharomyces cerevisiae BJ2-54 (exemplary method)
Experimental: The compounds of structural formula (I) were tested for an ability to inhibit PDE5. The ability of a compound to inhibit PDE5 activity is related to the IC50 value for the compound, i.e., the concentration of inhibitor required for 50% inhibition of enzyme activity. The IC50 value for compounds of structural formula (I) were determined using recombinant human PDE5.
cGMP-PDE activity of compounds of the present invention was measured using a one-step assay adapted from Wells et al., Biochim. Biophys. Acta, 384, 430 (1975). The reaction medium contained 50 mM Tris-HCl, pH 7.5, 5 mM magnesium acetate, 250 μg/ml 5′-Nucleotidase, 1 mM EGTA, and 0.15 μM 8-[H^3]-cGMP. Unless otherwise indicated, the enzyme used was a human recombinant PDE5 (ICOS Corp., Bothell, Wash.).
Compounds of the invention were dissolved in DMSO finally present at 2% in the assay.

Row | SMILES | IC50 (human recombinant PDE5) | melting point
1 | O=C1N[C@H](CO)C(=O)N2[C@H](c3ccc4c(c3)OCO4)c3[nH]c4ccccc4c3C[C@H]12 [Example 8, (3R,6R,12aR)-6-Benzo[1,3]dioxo-5-yl-3-hydroxymethyl-2,3,6,7,12,12a-hexahydropyrazino[1′,2′:1,;6]pyrido[3,4-b]indole-1,4-dione] | 28 nM | 194 to 200 °C
2 | CN1C(=O)[C@H]2Cc3c([nH]c4ccccc34)C(c3ccc4c(c3)OCO4)N2C(=O)C1(C)C (mixture of isomers) [Example 1, (12a,R)-6-Benzo[1,3]dioxol-5-yl,2,3,3-trimethyl-2,3,6,7,12,12a-hexahydropyrazino[1′,2′:1,6]-pyrido[3,4-b]indole-1,4-dione] | 161 nM | 225 to 235 °C
3 | CN1CCC(=O)N2[C@H](c3ccc4c(c3)OCO4)c3[nH]c4ccccc4c3C[C@H]2C1=O [Example 4, (5aS,11R)-11-Benzo[1,3]dioxol-5-yl-7-methyl-5,5a,8,9,11,12-hexahydro-7H-7,10a,12-triaza-cyclohepta[b]fluorene-6,10-dione] | 593 nM | 179 to 182 °C
4 | O=C1NNC(=O)N2[C@H](c3ccc4c(c3)OCO4)c3[nH]c4ccccc4c3C[C@H]12 [Example 3, (5aR,10R)-10-Benzo[1,3]dioxol-5-yl-5,5a,7,8,10,11-hexahydro-7,8,9a,11-tetraazabenzo[b]fluorene-6,9-dione] | 113 nM | 188 to 194 °C
5 | NC(=O)CC[C@@H]1NC(=O)[C@H]2Cc3c([nH]c4ccccc34)[C@@H](c3ccc4c(c3)OCO4)N2C1=O [Example 2, 3-((3S,6R,12aR)-6-Benzo[1,3]dioxol-5-yl-1,4-dioxo-1,2,3,4,6,7,12,12a-octahydropyrazino[1′,2′:1,6]-pyrido[3,4-b]indo-3-yl)propionamide] | 2.2 nM | 78 to 82 °C
6 | O=C(O)CC[C@@H]1NC(=O)[C@H]2Cc3c([nH]c4ccccc34)[C@@H](c3ccc4c(c3)OCO4)N2C1=O [Example 6, 3-((3S,6R,12aR)-6-Benzo[1,3]dioxol-5-yl-1,4-dioxo-1,2,3,4,6,7,12,12a-octahydropyrazino[1′,2′:1,6]pyrido[3,4-b]indole-3-yl)propionic acid] | 1 nM | –
7 | CC(C)OC(=O)CC[C@@H]1NC(=O)[C@H]2Cc3c([nH]c4ccccc34)[C@@H](c3ccc4c(c3)OCO4)N2C1=O [Example 7, 3-((3S,6R,12aR)-6-Benzo[1,3]dioxol-5-yl-1,4-dioxo-1,2,3,4,6,7,12,12a-octahydropyrazino[1′,2′:1,6]pyrido[3,4-b]indol-3-yl)-propionic acid isopropyl ester] | 0.2 nM | –
8 | CC(C)(C)OC(=O)CC[C@@H]1NC(=O)[C@H]2Cc3c([nH]c4ccccc34)[C@@H](c3ccc4c(c3)OCO4)N2C1=O [Example 5] | 0.6 nM | 222 to 227 °C

Source: patent US7034027B2, “Fused heterocyclic derivatives as phosphodiesterase inhibitors” (Lilly Icos LLC, priority 2000, dated 2006)
